According to ChEMBL document CHEMBL1201862, “PubChem BioAssay data set” (2004):
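A five-concentration, 48-hour dose response in 96-well plates underlies each endpoint, interpolated linearly between surrounding concentrations. At the GI50, growth is halved.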 The source made the active and inactive calls. No stated cut-off is given here; in the data, active = GI50 up to about 1.1 µM and inactive = higher.

What was measured:
Assay in all cases: growth of human tumour cells (NCI), 48 h
786-0 = test system: 786-0
EKVX = test system: EKVX
HCC 2998 = test system: HCC 2998
HL-60 = test system: HL-60
HOP-62 = test system: HOP-62
IGROV-1 = test system: IGROV-1
KM12 = test system: KM12
LOX IMVI = test system: LOX IMVI
Malme-3M = test system: Malme-3M
OVCAR-3 = test system: OVCAR-3
OVCAR-5 = test system: OVCAR-5
RPMI-8226 = test system: RPMI-8226
SK-MEL-5 = test system: SK-MEL-5
SNB-75 = test system: SNB-75
TK-10 = test system: TK-10
U-251 = test system: U-251

SMILES | GI50 (786-0) | GI50 (EKVX) | GI50 (HCC 2998) | GI50 (HL-60) | GI50 (HOP-62) | GI50 (IGROV-1) | GI50 (KM12) | GI50 (LOX IMVI) | GI50 (Malme-3M) | GI50 (OVCAR-3) | GI50 (OVCAR-5) | GI50 (RPMI-8226) | GI50 (SK-MEL-5) | GI50 (SNB-75) | GI50 (TK-10) | GI50 (U-251)
COC(=O)c1cc2c3c(ccc2[nH]1)N(C(=O)c1cc2c4c(ccc2[nH]1)N(C(=O)c1cc2c5c(ccc2[nH]1)N(C(N)=O)CC5)CC4)CC3 | 3.05 µM (inactive) | 2.17 µM (inactive) | 5.45 µM (inactive) | 6.62 µM (inactive) | 2.29 µM (inactive) | 3.37 µM (inactive) | 6.82 µM (inactive) | 1.88 µM (inactive) | 1.24 µM (inactive) | 3.9 µM (inactive) | > 52.7 µM (inactive) | 7.89 µM (inactive) | 2.07 µM (inactive) | 2.11 µM (inactive) | 13.1 µM (inactive) | 2.17 µM (inactive)
CC1(C)O/C(=C\c2ccccc2)C(=O)/C(=C/c2ccccc2)O1 | 37.8 µM (inactive) | 37.9 µM (inactive) | – | 9.25 µM (inactive) | 74.8 µM (inactive) | 51.4 µM (inactive) | 53.8 µM (inactive) | 28.6 µM (inactive) | 38 µM (inactive) | 27.1 µM (inactive) | 14.7 µM (inactive) | 16.3 µM (inactive) | 14.4 µM (inactive) | 31.6 µM (inactive) | 44.2 µM (inactive) | 28.4 µM (inactive)
CN(C)NC(=O)/C(=C/c1ccc(Cl)cc1)NC(=O)c1ccccc1 | > 100 µM (inactive) | > 100 µM (inactive) | > 100 µM (inactive) | 34.4 µM (inactive) | > 100 µM (inactive) | > 100 µM (inactive) | > 100 µM (inactive) | 48.3 µM (inactive) | > 100 µM (inactive) | > 100 µM (inactive) | > 100 µM (inactive) | > 100 µM (inactive) | > 100 µM (inactive) | 78 µM (inactive) | > 100 µM (inactive) | > 100 µM (inactive)
COc1cc2ccnc3c2c(c1OC)CC1CC(O)C(OC)CC31 (stereo unspecified) | 33.5 µM (inactive) | 22.8 µM (inactive) | 42.7 µM (inactive) | 28.6 µM (inactive) | 26.6 µM (inactive) | 66.4 µM (inactive) | 40.9 µM (inactive) | 31.7 µM (inactive) | > 100 µM (inactive) | 82.2 µM (inactive) | 37.5 µM (inactive) | 38.3 µM (inactive) | 38.4 µM (inactive) | > 100 µM (inactive) | 53.8 µM (inactive) | 38 µM (inactive)
CNC(C)Cc1ccccc1O (stereo unspecified) | > 100 µM (inactive) | > 100 µM (inactive) | > 100 µM (inactive) | > 100 µM (inactive) | > 100 µM (inactive) | > 100 µM (inactive) | > 100 µM (inactive) | > 100 µM (inactive) | > 100 µM (inactive) | > 100 µM (inactive) | > 100 µM (inactive) | > 100 µM (inactive) | > 100 µM (inactive) | > 100 µM (inactive) | > 100 µM (inactive) | > 100 µM (inactive)
CN1CC[C@]2(C)c3cc(O)ccc3CC3CCCC1C32C (stereo partly specified) | > 100 µM (inactive) | > 100 µM (inactive) | 47.2 µM (inactive) | > 100 µM (inactive) | > 100 µM (inactive) | > 100 µM (inactive) | > 100 µM (inactive) | > 100 µM (inactive) | > 100 µM (inactive) | > 100 µM (inactive) | > 100 µM (inactive) | > 100 µM (inactive) | > 100 µM (inactive) | 92 µM (inactive) | > 100 µM (inactive) | > 100 µM (inactive)
Oc1ccc(-c2n[nH]c(S)n2)cc1 | > 100 µM (inactive) | > 100 µM (inactive) | – | > 100 µM (inactive) | > 100 µM (inactive) | > 100 µM (inactive) | > 100 µM (inactive) | – | > 100 µM (inactive) | > 100 µM (inactive) | > 100 µM (inactive) | > 100 µM (inactive) | > 100 µM (inactive) | 87.5 µM (inactive) | > 100 µM (inactive) | > 100 µM (inactive)
CCO[C@]12C[C@H](OC)[C@@]3(O)CC(C1[C@H]3OCc1ccccc1)C13C4C2[C@H](OC)C1[C@](COC)(CN4CC)[C@H](O)C[C@@H]3OC (stereo partly specified) | 7.38 µM (inactive) | > 100 µM (inactive) | > 100 µM (inactive) | > 100 µM (inactive) | > 100 µM (inactive) | > 100 µM (inactive) | – | > 100 µM (inactive) | – | – | > 100 µM (inactive) | > 100 µM (inactive) | > 100 µM (inactive) | > 100 µM (inactive) | > 100 µM (inactive) | > 100 µM (inactive)
Cc1ccc2[nH]c3c4c5ccccc5nc-4c[nH]c3c2c1 | 17.1 µM (inactive) | 15.2 µM (inactive) | 16.1 µM (inactive) | 16.6 µM (inactive) | 10 µM (inactive) | 15 µM (inactive) | 15.6 µM (inactive) | 17.2 µM (inactive) | 19.1 µM (inactive) | 10 µM (inactive) | 17.1 µM (inactive) | 18.1 µM (inactive) | – | 14.9 µM (inactive) | 21 µM (inactive) | 14.8 µM (inactive)
CCOC(=O)C(=O)Nc1ccc([N+](=O)[O-])cc1C#N | > 100 µM (inactive) | > 100 µM (inactive) | > 100 µM (inactive) | > 100 µM (inactive) | > 100 µM (inactive) | > 100 µM (inactive) | > 100 µM (inactive) | > 100 µM (inactive) | > 100 µM (inactive) | > 100 µM (inactive) | > 100 µM (inactive) | > 100 µM (inactive) | > 100 µM (inactive) | – | > 100 µM (inactive) | > 100 µM (inactive)
Cc1nc(N)nc(N)c1CCCCc1ccc(N)cc1 | 0.728 µM (active) | 9.23 µM (inactive) | 3.25 µM (inactive) | 3.07 µM (inactive) | 5.11 µM (inactive) | 3.35 µM (inactive) | 9.35 µM (inactive) | 1.09 µM (active) | 1.96 µM (inactive) | 5.53 µM (inactive) | 4.46 µM (inactive) | 5.81 µM (inactive) | 3.43 µM (inactive) | 11.9 µM (inactive) | 11.5 µM (inactive) | 3.03 µM (inactive)
O=C1C2c3[nH]c4ccccc4c3[C@@H]3CCCCC3C2C(=O)N1c1ccccc1 (stereo partly specified) | 18.9 µM (inactive) | 15.3 µM (inactive) | 19.3 µM (inactive) | 20.3 µM (inactive) | – | 23 µM (inactive) | 19.2 µM (inactive) | 15.8 µM (inactive) | 20.6 µM (inactive) | 15.4 µM (inactive) | 16.8 µM (inactive) | 17.5 µM (inactive) | 17.9 µM (inactive) | 27.2 µM (inactive) | 28 µM (inactive) | 14.4 µM (inactive)
Cc1cc(N(CCC#N)CCC#N)ccc1/C=C1\N=C(c2cc([N+](=O)[O-])ccc2Cl)N(NC(=O)c2ccc(/N=C\c3ccc(N(CCC#N)S(C)(=O)=O)cc3C)cc2)C1=O | > 100 µM (inactive) | > 100 µM (inactive) | > 100 µM (inactive) | 61.4 µM (inactive) | 63.5 µM (inactive) | > 100 µM (inactive) | > 100 µM (inactive) | > 100 µM (inactive) | > 100 µM (inactive) | > 100 µM (inactive) | > 100 µM (inactive) | > 100 µM (inactive) | 38.2 µM (inactive) | > 100 µM (inactive) | > 100 µM (inactive) | > 100 µM (inactive)
Cc1cccc(N2C(=O)/C(=C/c3ccc(N(CCC#N)CCC#N)cc3C)N=C2c2cc([N+](=O)[O-])ccc2Cl)c1 | > 100 µM (inactive) | 68.1 µM (inactive) | > 100 µM (inactive) | 74 µM (inactive) | > 100 µM (inactive) | > 100 µM (inactive) | > 100 µM (inactive) | – | > 100 µM (inactive) | > 100 µM (inactive) | > 100 µM (inactive) | > 100 µM (inactive) | > 100 µM (inactive) | > 100 µM (inactive) | > 100 µM (inactive) | > 100 µM (inactive)
O=C(c1ccco1)N(C(=S)N1CCN(c2ccccc2)CC1)c1ccccc1 | > 100 µM (inactive) | – | – | > 100 µM (inactive) | > 100 µM (inactive) | > 100 µM (inactive) | > 100 µM (inactive) | > 100 µM (inactive) | > 100 µM (inactive) | > 100 µM (inactive) | > 100 µM (inactive) | > 100 µM (inactive) | > 100 µM (inactive) | > 100 µM (inactive) | > 100 µM (inactive) | > 100 µM (inactive)
c1ccc2c(c1)nnn2CNc1ccc(N2CCCCC2)cc1 | > 100 µM (inactive) | > 100 µM (inactive) | > 100 µM (inactive) | 45.3 µM (inactive) | > 100 µM (inactive) | > 100 µM (inactive) | > 100 µM (inactive) | > 100 µM (inactive) | > 100 µM (inactive) | > 100 µM (inactive) | – | 68.2 µM (inactive) | – | > 100 µM (inactive) | > 100 µM (inactive) | > 100 µM (inactive)
COC(=O)C(C(=O)C(=O)Nc1ccc(C)cc1C)c1nc2ccc([N+](=O)[O-])cc2nc1O (stereo unspecified) | > 100 µM (inactive) | > 100 µM (inactive) | – | 34.8 µM (inactive) | > 100 µM (inactive) | > 100 µM (inactive) | > 100 µM (inactive) | > 100 µM (inactive) | > 100 µM (inactive) | – | > 100 µM (inactive) | 33.8 µM (inactive) | > 100 µM (inactive) | > 100 µM (inactive) | > 100 µM (inactive) | > 100 µM (inactive)
NCCCC(N/C=C1/N=C(c2ccccc2)OC1=O)C(=O)O (stereo unspecified) | > 100 µM (inactive) | > 100 µM (inactive) | > 100 µM (inactive) | 63.4 µM (inactive) | > 100 µM (inactive) | > 100 µM (inactive) | – | > 100 µM (inactive) | > 100 µM (inactive) | > 100 µM (inactive) | > 100 µM (inactive) | 45.5 µM (inactive) | > 100 µM (inactive) | > 100 µM (inactive) | > 100 µM (inactive) | > 100 µM (inactive)
